Assay [1] in a line: Potentiation of vinblastin-induced cytotoxicity against human CEM cells at 5 uM after 72 hrs by Alamar blue assay relative to control. It is filed as functional, CCRF-CEM.
Assay [2] addresses T1, Large neutral amino acids transporter small subunit 3 (Homo sapiens) (UniProt O75387).
T1 sequence (whole entry): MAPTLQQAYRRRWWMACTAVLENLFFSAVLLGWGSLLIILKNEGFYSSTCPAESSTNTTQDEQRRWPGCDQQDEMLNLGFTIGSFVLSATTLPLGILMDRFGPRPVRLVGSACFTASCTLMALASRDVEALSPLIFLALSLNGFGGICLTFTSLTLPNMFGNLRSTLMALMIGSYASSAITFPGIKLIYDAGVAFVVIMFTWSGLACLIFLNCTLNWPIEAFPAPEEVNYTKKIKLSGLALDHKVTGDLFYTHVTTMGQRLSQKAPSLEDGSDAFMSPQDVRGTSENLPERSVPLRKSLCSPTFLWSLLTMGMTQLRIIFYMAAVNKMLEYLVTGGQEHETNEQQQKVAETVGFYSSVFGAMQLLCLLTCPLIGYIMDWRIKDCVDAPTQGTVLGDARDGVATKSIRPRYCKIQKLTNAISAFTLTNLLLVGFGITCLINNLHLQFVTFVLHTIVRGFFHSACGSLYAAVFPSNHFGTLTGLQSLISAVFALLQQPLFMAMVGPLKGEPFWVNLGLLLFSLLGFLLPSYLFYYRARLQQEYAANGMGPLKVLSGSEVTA
The assay can be described thus: Inhibition of LAT3 in human LNCAP cells assessed as inhibition of [3H]L-leucine uptake at 10 uM after 15 mins by liquid scintillation counting method relative to control. The format is cell-based.

Assay [3] concerns CCRF-CEM VCR/R. Description: Inhibition of P-gp in human CCRF-CEM VCR/R cells assessed as potentiation of vinblastin-induced cytotoxicity at 5 uM after 72 hrs by Alamar blue assay relative to control. It is filed as cell-based. A general note: Alamar Blue is a resazurin reagent that responds to reducing activity.
A short description of assay [4]: Cytotoxicity against human LNCAP cells assessed as cell viability inhibition at 10 uM after 72 hrs by Alamar blue assay. It is filed as functional.
In assay [5] the target is T1, Large neutral amino acids transporter small subunit 3 (Homo sapiens). Description: Inhibition of LAT3 in human LNCAP cells assessed as inhibition of [3H]L-leucine uptake at 10 mM after 15 mins by liquid scintillation counting method relative to control. The format is cell-based.
In assay [6] the target is T2, Large neutral amino acids transporter small subunit 3 (Homo sapiens, UniProt O75387).
T2 sequence (O75387 whole entry): T1 sequence (whole entry)
The assay can be described thus: Inhibition of LAT3 in human LNCAP cells assessed as inhibition of [3H]L-leucine uptake after 15 mins by liquid scintillation counting method. The format is cell-based.

Each structure is given as a SMILES string. Bounds are passed on as bounds.

As to `COc1ccc(CCN(C)CCCC(C#N)(c2ccc(OC)c(OC)c2)C(C)C)cc1OC` (stereo not given) [VERAPAMIL], the “fold change (FC)” value in assay [1] stood at 2.8; in assay [3], 64.5. In addition, the inhibition in assay [2] was 82.7%.

As to `CC(=O)OC[C@@]12[C@@H](OC(C)=O)CC[C@@H](C)[C@]13OC(C)(C)[C@H]([C@@H](OC(=O)c1ccc(Br)cc1)[C@H]2OC(=O)c1ccccc1)[C@H]3OC(C)=O`, the inhibition at 10 µM in assay [4] was above 30%.

Regarding `NC1(C(=O)O)CC2CCC1C2` (stereo not given), the inhibition in assay [5] came to 40.2%.

On to `CC(=O)O[C@@H]1[C@@H]2[C@@H](OC(C)=O)[C@]3(OC2(C)C)[C@H](C)CC[C@H](OC(C)=O)[C@@]3(C)[C@@H]1OC(=O)c1ccccc1`, for which the concentration for half-maximal inhibition (IC50) in assay [6] was 15.5 µM. Further, the “fold change (FC)” value amounted to 2 in assay [1] and 61 in assay [3]. In addition, in assay [4], the inhibition at 10 µM worked out at 14.6%.

As for `CC(=O)O[C@H]1CC[C@@H](C)[C@]23OC(C)(C)[C@H](C[C@H](OC(=O)c4ccccc4)[C@]12C)[C@H]3OC(C)=O`, the inhibition at 10 µM in assay [4] was above 30%.

Regarding `CC(=O)OC[C@@]12[C@@H](OC(C)=O)CC[C@@H](C)[C@]13OC(C)(C)[C@H](C[C@@H]2OC(=O)c1ccccc1)[C@H]3OC(C)=O`, the inhibition at 10 µM in assay [4] is above 30%.

Turning to `CC(=O)O[C@H]1CC[C@@H](C)[C@]23OC(C)(C)[C@H]([C@@H](O)[C@@H](OC(=O)c4ccccc4)[C@]12C)[C@H]3OC(C)=O`, in assay [4], the inhibition at 10 µM is above 30%.

For the molecule `CC(=O)OC[C@@]12[C@@H](OC(C)=O)CC[C@@H](C)[C@]13OC(C)(C)[C@H]([C@@H](OC(C)=O)[C@H]2OC(=O)c1ccccc1)[C@H]3O`, the inhibition at 10 µM in assay [4] was above 30%.

Turning to `CC(=O)OC[C@@]12[C@@H](OC(C)=O)CC[C@@H](C)[C@]13OC(C)(C)[C@H]([C@@H](OC(=O)C(C)(C)C)[C@H]2OC(=O)c1ccccc1)[C@H]3OC(C)=O`, the “fold change (FC)” value in assay [1] amounted to 1.5; in assay [3], 124. The inhibition at 10 µM in assay [4] came out at 25.6%.

As for `CC(=O)OC[C@@]12[C@@H](OC(C)=O)CC[C@@H](C)[C@]13OC(C)(C)[C@H]([C@@H](O)[C@@H]2OC(=O)c1ccccc1)[C@H]3OC(C)=O`, the inhibition at 10 µM in assay [4] is above 30%.

`CC(=O)OC[C@@]12[C@@H](OC(C)=O)CC[C@@H](C)[C@]13OC(C)(C)[C@H]([C@@H](OC(C)=O)[C@H]2OC(=O)c1ccccc1)[C@H]3OC(C)=O`: in assay [4], the inhibition at 10 µM was above 30%.

Regarding `COCC(=O)O[C@@H]1[C@@H]2[C@@H](OC(C)=O)[C@]3(OC2(C)C)[C@H](C)CC[C@H](OC(C)=O)[C@@]3(COC(C)=O)[C@@H]1OC(=O)c1ccccc1`, in assay [4], the inhibition at 10 µM was above 30%.

As for `CC(=O)OC[C@@]12[C@@H](OC(C)=O)CC[C@@H](C)[C@]13OC(C)(C)[C@H]([C@@H](OC(=O)c1ccccc1)[C@H]2OC(=O)c1ccccc1)[C@H]3OC(C)=O`, the “fold change (FC)” value in assay [1] worked out at 2.1; in assay [3], 131. In addition, in assay [4], the inhibition at 10 µM stood at 21.2%.

Consider `CC(=O)OC[C@@]12[C@@H](OC(C)=O)CC[C@@H](C)[C@]13OC(C)(C)[C@H]([C@@H](O)[C@H]2OC(=O)c1ccccc1)[C@H]3OC(C)=O`, for which, in assay [6], the IC50 is 124 µM. For the same molecule, the “fold change (FC)” value in assay [1] amounted to 1.7; in assay [3], 36.3. For the same molecule, the inhibition at 10 µM in assay [4] is above 30%.

Regarding `CC(=O)OC[C@@]12[C@@H](OC(C)=O)CC[C@@H](C)[C@]13OC(C)(C)[C@H](C(=O)[C@H]2OC(=O)c1ccccc1)[C@H]3OC(C)=O`, the half-inhibitory concentration (IC50) in assay [6] stood at 151 µM. Also, the “fold change (FC)” value in assay [1] was 1.9; in assay [3], 50.6. Besides, in assay [4], the inhibition at 10 µM is above 30%.

The inhibition is the change of the read-out against control, counted positive when it falls. For orientation: IC50 means the concentration that inhibits the measured activity by half.
